The target of series [1] is T1, 3-phosphoinositide-dependent protein kinase 1 (Homo sapiens, UniProt O15530).
T1 sequence (O15530 whole entry): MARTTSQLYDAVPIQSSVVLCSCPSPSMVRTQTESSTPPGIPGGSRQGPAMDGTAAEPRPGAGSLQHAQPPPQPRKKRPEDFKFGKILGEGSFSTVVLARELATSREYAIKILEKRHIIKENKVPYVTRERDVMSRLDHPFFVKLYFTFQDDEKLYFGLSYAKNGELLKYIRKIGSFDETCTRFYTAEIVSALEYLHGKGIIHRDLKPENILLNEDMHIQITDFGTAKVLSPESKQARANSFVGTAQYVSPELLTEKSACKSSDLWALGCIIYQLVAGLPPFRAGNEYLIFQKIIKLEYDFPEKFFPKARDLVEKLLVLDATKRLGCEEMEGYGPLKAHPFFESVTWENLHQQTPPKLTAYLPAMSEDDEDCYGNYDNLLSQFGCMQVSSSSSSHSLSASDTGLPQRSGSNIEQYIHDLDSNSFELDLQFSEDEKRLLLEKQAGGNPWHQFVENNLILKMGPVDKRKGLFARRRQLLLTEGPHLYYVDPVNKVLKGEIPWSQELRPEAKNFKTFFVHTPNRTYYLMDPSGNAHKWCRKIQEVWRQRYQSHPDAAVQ
As to the kind of experiment: Inhibition of human His6-tagged PDK1 using biotinylated PDKtide as substrate after 60 mins by topcount method.

Series [2] deals with T1, 3-phosphoinositide-dependent protein kinase 1. The series is described as follows: Inhibition of PDK1 in human PC3 cells assessed as reduction in AKT Thr308 phosphorylation after 45 mins. The class given is cell-based, PC-3.
Series [3] deals with T2, Phosphatidylinositol 4,5-bisphosphate 3-kinase catalytic subunit alpha isoform (Homo sapiens, UniProt P42336). The series is described as follows: Inhibition of PI3K alpha (unknown origin).
Series [4] has as its target T3, Phosphatidylinositol 4,5-bisphosphate 3-kinase catalytic subunit delta isoform (Homo sapiens, UniProt O00329).
T3 sequence (O00329 whole entry): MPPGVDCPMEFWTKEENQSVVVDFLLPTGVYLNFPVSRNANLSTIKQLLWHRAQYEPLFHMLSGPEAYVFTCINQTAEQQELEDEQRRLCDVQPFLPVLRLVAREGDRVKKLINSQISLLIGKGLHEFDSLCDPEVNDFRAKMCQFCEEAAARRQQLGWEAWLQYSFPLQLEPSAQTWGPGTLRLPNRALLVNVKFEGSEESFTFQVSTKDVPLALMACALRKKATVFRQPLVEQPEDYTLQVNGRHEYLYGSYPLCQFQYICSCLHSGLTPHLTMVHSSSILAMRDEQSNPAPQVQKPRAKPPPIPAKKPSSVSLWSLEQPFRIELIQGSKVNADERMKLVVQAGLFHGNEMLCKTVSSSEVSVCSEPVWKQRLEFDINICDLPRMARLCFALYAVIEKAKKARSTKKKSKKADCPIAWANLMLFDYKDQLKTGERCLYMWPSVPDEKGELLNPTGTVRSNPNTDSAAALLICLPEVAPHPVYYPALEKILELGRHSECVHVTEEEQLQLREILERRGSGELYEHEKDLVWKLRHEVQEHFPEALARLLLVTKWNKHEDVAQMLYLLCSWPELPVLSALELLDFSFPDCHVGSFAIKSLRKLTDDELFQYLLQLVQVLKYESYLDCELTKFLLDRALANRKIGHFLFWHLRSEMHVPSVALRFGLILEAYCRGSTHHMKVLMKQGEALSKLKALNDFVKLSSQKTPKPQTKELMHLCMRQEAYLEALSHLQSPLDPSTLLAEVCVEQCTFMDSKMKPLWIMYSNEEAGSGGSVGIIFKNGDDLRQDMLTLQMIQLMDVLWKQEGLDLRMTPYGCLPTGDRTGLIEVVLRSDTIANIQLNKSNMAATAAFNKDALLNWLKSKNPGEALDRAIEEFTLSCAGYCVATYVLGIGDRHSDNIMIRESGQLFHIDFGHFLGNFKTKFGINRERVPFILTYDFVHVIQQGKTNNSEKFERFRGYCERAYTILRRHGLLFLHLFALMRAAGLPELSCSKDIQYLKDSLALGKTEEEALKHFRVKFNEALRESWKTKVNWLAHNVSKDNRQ
The series is described as follows: Inhibition of PI3K delta (unknown origin).

Series [5] addresses Phosphatidylinositol 4,5-bisphosphate 3-kinase catalytic subunit gamma isoform (Homo sapiens, UniProt P48736). As to the kind of experiment: Inhibition of PI3K gamma (unknown origin).
Series [6] concerns the target Phosphatidylinositol 4,5-bisphosphate 3-kinase catalytic subunit beta isoform (Homo sapiens, UniProt P42338). As to the kind of experiment: Inhibition of PI3K beta (unknown origin).
The target in series [7] is T1, 3-phosphoinositide-dependent protein kinase 1. The series is described as follows: Inhibition of human PDK1.
A short description of series [8]: Solubility of the compound. The class given is physicochemical.
The target of series [9] is T2, Phosphatidylinositol 4,5-bisphosphate 3-kinase catalytic subunit alpha isoform. The series is described as follows: Inhibition of PI3K alpha (unknown origin) at 10 uM.
Series [10] in a line: Intrinsic clearance in human liver microsomes. The class given is ADME. The following applies: read-out: CLH. (In general: Liver microsomes are a subcellular fraction often used to study metabolism.)
The nature of series [11]: Intrinsic clearance in mouse liver microsomes. The class given is ADME. The following applies: read-out: CLH.
Series [12] can be described thus: Efflux ratio of permeability from basolateral to apical over apical to basolateral side in human Caco2 cells. The class given is ADME, cell-based. Conditions: Caco-2. For orientation: Passage across Caco-2 layers is used to estimate intestinal permeability.
A short description of series [13]: Permeability across apical to basolateral side in human Caco2 cells. The class given is ADME, cell-based. The following applies: Caco-2.
The species named for a further series is Homo sapiens. As to the kind of experiment: Selectivity ratio of IC50 for PI3K alpha (unknown origin) to IC50 for human His6-tagged PDK1.

Converted amounts (≈) assume the structure as drawn.

Phosphatidylinositol 4,5-bisphosphate 3-kinase catalytic subunit beta isoform, sequence (P42338 whole entry, canonical isoform): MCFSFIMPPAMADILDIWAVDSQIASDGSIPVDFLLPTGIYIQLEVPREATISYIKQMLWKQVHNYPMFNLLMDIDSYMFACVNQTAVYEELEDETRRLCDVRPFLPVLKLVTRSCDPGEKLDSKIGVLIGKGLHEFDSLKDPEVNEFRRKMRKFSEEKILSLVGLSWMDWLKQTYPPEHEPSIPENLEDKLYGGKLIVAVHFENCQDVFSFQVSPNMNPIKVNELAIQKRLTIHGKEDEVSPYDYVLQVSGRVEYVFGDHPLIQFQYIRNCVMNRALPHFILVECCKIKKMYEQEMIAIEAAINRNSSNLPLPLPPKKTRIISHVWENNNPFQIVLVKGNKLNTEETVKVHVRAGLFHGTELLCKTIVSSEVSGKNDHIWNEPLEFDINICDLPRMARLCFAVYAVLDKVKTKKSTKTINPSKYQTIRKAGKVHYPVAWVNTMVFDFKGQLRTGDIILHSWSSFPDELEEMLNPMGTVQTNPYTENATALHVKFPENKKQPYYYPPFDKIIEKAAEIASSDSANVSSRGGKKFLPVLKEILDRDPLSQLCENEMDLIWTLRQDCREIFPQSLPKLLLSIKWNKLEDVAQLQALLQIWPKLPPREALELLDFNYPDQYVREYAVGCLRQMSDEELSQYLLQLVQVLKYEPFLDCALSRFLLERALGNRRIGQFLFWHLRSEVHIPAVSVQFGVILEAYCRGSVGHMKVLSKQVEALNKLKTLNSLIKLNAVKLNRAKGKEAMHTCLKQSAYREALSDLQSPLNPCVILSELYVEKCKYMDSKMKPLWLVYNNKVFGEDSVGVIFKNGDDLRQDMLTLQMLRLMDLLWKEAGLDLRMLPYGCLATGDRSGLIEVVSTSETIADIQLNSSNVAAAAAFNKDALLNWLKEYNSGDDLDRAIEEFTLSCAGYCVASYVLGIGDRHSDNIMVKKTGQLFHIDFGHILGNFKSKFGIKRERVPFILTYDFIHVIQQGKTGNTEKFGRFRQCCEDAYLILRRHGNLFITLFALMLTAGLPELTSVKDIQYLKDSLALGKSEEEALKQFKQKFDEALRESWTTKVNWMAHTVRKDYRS
Phosphatidylinositol 4,5-bisphosphate 3-kinase catalytic subunit gamma isoform, sequence (P48736 whole entry, canonical isoform): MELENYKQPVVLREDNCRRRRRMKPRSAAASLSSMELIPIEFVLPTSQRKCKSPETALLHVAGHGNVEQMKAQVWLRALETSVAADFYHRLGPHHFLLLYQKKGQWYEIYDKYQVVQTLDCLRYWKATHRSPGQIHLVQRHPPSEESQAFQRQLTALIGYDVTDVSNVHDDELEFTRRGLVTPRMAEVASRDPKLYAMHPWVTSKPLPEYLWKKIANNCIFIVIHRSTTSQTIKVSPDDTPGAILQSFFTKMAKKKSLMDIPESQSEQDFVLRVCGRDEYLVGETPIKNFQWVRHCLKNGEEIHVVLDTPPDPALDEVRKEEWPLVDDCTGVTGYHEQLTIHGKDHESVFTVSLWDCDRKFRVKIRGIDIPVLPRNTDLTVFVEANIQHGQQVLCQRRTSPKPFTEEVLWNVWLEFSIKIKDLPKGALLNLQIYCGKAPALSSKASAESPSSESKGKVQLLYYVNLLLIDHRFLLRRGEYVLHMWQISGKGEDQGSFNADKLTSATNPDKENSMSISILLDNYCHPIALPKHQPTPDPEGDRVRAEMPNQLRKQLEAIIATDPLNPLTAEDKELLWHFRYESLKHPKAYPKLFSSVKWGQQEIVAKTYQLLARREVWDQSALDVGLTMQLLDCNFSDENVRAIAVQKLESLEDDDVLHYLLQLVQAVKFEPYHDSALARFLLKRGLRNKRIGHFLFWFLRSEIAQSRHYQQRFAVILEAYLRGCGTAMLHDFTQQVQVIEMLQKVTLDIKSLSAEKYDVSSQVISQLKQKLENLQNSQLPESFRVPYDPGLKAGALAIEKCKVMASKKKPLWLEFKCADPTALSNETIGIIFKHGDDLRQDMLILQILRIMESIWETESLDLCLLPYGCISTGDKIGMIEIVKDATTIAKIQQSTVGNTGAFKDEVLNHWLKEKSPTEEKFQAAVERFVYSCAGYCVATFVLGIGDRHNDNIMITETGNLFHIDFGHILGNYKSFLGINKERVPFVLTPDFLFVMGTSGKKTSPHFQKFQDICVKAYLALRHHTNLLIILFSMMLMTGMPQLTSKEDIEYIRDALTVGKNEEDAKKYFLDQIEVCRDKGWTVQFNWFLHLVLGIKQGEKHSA
T2 sequence (P42336 whole entry, canonical isoform): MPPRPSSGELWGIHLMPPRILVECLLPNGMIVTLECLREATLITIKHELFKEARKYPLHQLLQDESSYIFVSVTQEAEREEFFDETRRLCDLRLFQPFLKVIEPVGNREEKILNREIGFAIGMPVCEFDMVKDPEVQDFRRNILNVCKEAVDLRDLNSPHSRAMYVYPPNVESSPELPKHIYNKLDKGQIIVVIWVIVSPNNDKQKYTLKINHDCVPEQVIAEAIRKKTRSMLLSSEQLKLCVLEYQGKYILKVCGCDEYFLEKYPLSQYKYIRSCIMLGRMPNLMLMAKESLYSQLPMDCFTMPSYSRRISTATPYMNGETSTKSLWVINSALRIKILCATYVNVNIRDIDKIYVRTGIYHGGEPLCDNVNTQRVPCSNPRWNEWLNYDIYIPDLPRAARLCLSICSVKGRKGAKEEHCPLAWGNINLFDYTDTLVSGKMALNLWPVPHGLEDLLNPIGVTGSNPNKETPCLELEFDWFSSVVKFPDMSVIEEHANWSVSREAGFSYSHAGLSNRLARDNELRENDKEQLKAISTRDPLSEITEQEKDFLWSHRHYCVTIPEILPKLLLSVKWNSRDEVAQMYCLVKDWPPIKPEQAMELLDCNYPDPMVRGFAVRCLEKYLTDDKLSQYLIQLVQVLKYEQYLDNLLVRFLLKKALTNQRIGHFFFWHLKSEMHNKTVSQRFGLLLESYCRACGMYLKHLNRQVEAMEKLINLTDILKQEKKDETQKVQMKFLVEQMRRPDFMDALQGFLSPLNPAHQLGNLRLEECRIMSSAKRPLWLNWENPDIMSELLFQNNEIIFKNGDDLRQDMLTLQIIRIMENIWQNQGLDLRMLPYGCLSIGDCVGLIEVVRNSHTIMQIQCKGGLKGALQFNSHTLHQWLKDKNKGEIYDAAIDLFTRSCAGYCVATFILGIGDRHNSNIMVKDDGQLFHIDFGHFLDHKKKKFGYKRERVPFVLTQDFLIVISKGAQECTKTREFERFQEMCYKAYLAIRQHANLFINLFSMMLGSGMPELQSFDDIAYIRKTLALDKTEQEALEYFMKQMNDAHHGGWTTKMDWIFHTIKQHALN

Regarding `CCc1cc(-c2c[nH]c3ncccc23)nc(N)n1`, the IC50 in series [1] is 1.2 µM; in series [2] it was greater than 30 µM.
The like results for `CCc1cc(-c2c[nH]c3ncc(Br)cc23)nc(N)n1` were, in that order, 0.48 µM and greater than 30 µM.
As for `Nc1ncc(-c2ccccc2)cc1-c1nc2ccccc2[nH]1`, inhibition in series [1] was half-maximal at 1.1 µM (IC50).
In the case of `Nc1nc2c3ccccc3nc(-c3ccccc3)n2n1`, in series [1], the concentration for half-maximal inhibition (IC50) stood at 60 µM.
Turning to `CCc1cc(-c2c[nH]c3ncc(-c4ccco4)cc23)nc(N)n1`, the IC50 in series [3] is greater than 10 µM; in series [4], greater than 10 µM; in series [1], 0.12 µM; in [5], greater than 10 µM; in series [2] it was 28 µM.
As to `CCc1cc(-c2c[nH]c3ncc(-c4ccc(N)nc4)cc23)nc(N)n1`, the IC50 in series [3] is greater than 10 µM; in [4], greater than 10 µM; in series [1], 0.17 µM; in [6], greater than 30 µM; in [5], greater than 10 µM; in series [2] it was 21 µM.
For the compound `CNc1nccc(-c2cn(CCOC)c3ncccc23)n1`, in [1], the half-inhibitory concentration (IC50) was greater than 10 µM.
As for `CCc1cc(-c2c[nH]c3ncccc23)ncn1`, the IC50 in series [1] is greater than 10 µM; in series [2], greater than 30 µM.
For the compound `Nc1nccc(-c2c[nH]c3cccc(O)c23)n1` [MERIDIANIN A], the concentration for half-maximal inhibition (IC50) in series [7] was 5.4 µM.
`CCc1cc(-c2c[nH]c3nccc(Cl)c23)nc(N)n1` showed an IC50 in series [1] greater than 10 µM.
Regarding `NCCCc1cc(-c2c[nH]c3ncccc23)nc(N)n1`, the half-inhibitory concentration (IC50) was 0.39 µM in series [1] and greater than 30 µM in [2]. In [8], this compound registered a solubility of 12 µg/mL (≈ 44.7 µM).
The compound `COc1ccc2[nH]c(-c3cc[nH]n3)nc2c1` gave an IC50 in [1] of 93 µM.
Consider `CCCc1cc(-c2c[nH]c3ncccc23)nc(N)n1`, for which the half-inhibitory concentration (IC50) was 1.8 µM in [1] and greater than 30 µM in series [2].
The like results for `CCc1cc(-c2c[nH]c3ncc(-c4c(C)nn(C)c4C)cc23)nc(N)n1` were, in that order, 2.7 µM and greater than 30 µM.
For the compound `Cc1nccc(-c2c[nH]c3ncccc23)n1`, the concentration for half-maximal inhibition (IC50) in series [1] is greater than 10 µM.
In the case of `CCc1cc(-c2c[nH]c3ncc(-c4ccn[nH]4)cc23)nc(N)n1`, the IC50 is greater than 10 µM in series [3]; greater than 10 µM in series [4]; 0.26 µM in [1]; greater than 30 µM in series [6]; greater than 10 µM in [5]; 26 µM in series [2].
Regarding `CCc1cc(-c2c[nH]c3ncc(-c4ccnn4C)cc23)nc(N)n1`, the results for the IC50 in series [1] and in series [2] were 2.4 µM and greater than 30 µM, respectively.
On to `CCc1cc(-c2c[nH]c3ncc(-c4cccnc4)cc23)nc(N)n1`, for which the 50% inhibitory concentration (IC50) in series [1] was 0.5 µM; in [2] it was greater than 30 µM.
Regarding `CCc1cc(-c2c[nH]c3ncc(-c4ccncc4)cc23)nc(N)n1`, the results for the IC50 in [1] and in series [2] were 0.45 µM and greater than 30 µM, respectively.
As to `CCc1cc(-c2c[nH]c3ncc(-c4ccccc4)cc23)nc(N)n1`, the IC50 is 3.5 µM in series [1] and greater than 30 µM in series [2].
In [1], `Nc1ncc(Br)c(-c2c[nH]c3ncccc23)n1` registered a 50% inhibitory concentration (IC50) greater than 10 µM.
As for `NCCCCc1cc(-c2c[nH]c3ncccc23)nc(N)n1`, the IC50 in series [1] is 1 µM; in series [2], greater than 30 µM.
`CCCCCc1cc(-c2c[nH]c3ncccc23)nc(N)n1`: the IC50 was 2.2 µM in series [1] and greater than 30 µM in series [2].
In turn, `Nc1nccc(-c2c[nH]c3ccc(Br)cc23)n1` [MERIDIANIN C] returned an IC50 in series [1] of 12 µM.
`CCc1cc(-c2c[nH]c3ncc(-c4cnn(C)c4)cc23)nc(N)n1` returned an inhibition in series [9] of 78%. Also, the microsomal CLint is greater than 55 µL/min/mg in [10] and 71 µL/min/mg in series [11]. For the same compound, the IC50 is greater than 10 µM in series [4], 0.085 µM in series [1], greater than 10 µM in series [5] and 11 µM in series [2]. Further, the Ratio in series [12] came to 7.9. The Papp A→B in [13] turned out to be 5.4 ×10⁻⁶ cm/s.
Consider `CCc1cc(-c2c[nH]c3ncc(-c4cnn(CCN(C)C)c4)cc23)nc(N)n1`, for which the 50% inhibitory concentration (IC50) in series [3] is 3.9 µM; in series [4] it was greater than 10 µM; in series [1], 0.082 µM; in [6] it was greater than 30 µM; in series [5] it was greater than 10 µM; in [2] it was 14 µM. Also, the values for the microsomal CLint in series [10] and in series [11] were less than 10 µL/min/mg and 39 µL/min/mg, respectively. Besides, the Ratio IC50 in the series listed under Homo sapiens amounted to 48. For the same compound, in [12], the Ratio turned out to be 2.3. The same compound showed an apparent permeability from apical to basolateral (Papp A→B) in series [13] of 7.3 ×10⁻⁶ cm/s.
In the case of `CCc1cc(-c2c[nH]c3ncc(-c4cn[nH]c4)cc23)nc(N)n1`, the half-maximal inhibitory concentration (IC50) in series [3] was 6 µM; in [4] it was greater than 30 µM; in series [1] it was 0.013 µM; in series [6], greater than 30 µM; in series [5], 7 µM; in [2], 5.4 µM. Moreover, the microsomal CLint is 52 µL/min/mg in series [10] and greater than 70 µL/min/mg in series [11]. In the series listed under Homo sapiens, the Ratio IC50 was determined as 460. Further, the Ratio in [12] was determined as 54.8. Moreover, the Papp A→B in [13] amounted to 0.89 ×10⁻⁶ cm/s.
In turn, `CCc1cc(-c2c(C)[nH]c3ncccc23)nc(N)n1` showed an IC50 in [1] greater than 10 µM.
As for `CCc1cc(-c2c[nH]c3ncc(-c4cnn(CC(C)C)c4)cc23)nc(N)n1`, the half-maximal inhibitory concentration (IC50) in [3] was 4.7 µM; in [4], greater than 10 µM; in [1], 0.11 µM; in series [6], greater than 30 µM; in series [5] it was greater than 10 µM; in series [2], 9.6 µM. Also, the microsomal CLint was greater than 55 µL/min/mg in [10] and 67 µL/min/mg in [11]. The Ratio IC50 in the series filed under Homo sapiens stood at 42. For the same compound, the Ratio in series [12] is reported as 0.6. Also, the Papp A→B in series [13] was 27 ×10⁻⁶ cm/s.
In series [1], `Oc1ccc(-c2n[nH]c3cc(O)ccc23)cc1` returned an IC50 of 6.7 µM.

Broadly, the IC50 is the concentration that inhibits the measured activity by half. In general, solubility refers to the dissolved amount per volume that the medium holds. Low values mean a poorly soluble substance, high ones a readily soluble substance. By inhibition is commonly meant the relative decrease from the control value, in per cent. Lower therefore signals a response near the control. The Papp A→B is how fast a substance crosses the layer from the apical side. A high value points to ready permeation.

These data come from ChEMBL document CHEMBL3813616, “Discovery of novel 7-azaindoles as PDK1 inhibitors” (Bioorg Med Chem Lett, 2016).
